The target in one assay is METTL3/METTL14 (Homo sapiens, UniProt Q86U44). In words: METTL3-14 standard enzyme assay (3H-SAM flashplate scintillation). Type of assay: biochemical. As to conditions: METTL3/METTL14 2.5 nM, RNA 100 nM, 3H-SAM 100 nM, 30 min. Summed up:
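Radiometric methylation readout: biotinylated RNA substrate UCUGGACUAAA and 3H-SAM, each 100 nM final, reacted 30 min at ambient temperature with 2.5 nM enzyme complex after 5 min compound preincubation (HEPES pH 7.5 buffer, KCl, MgCl2, DTT). Excess unlabelled SAM (15 μM) stopped reactions before streptavidin flashplate capture.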

Another assay addresses PRMT5-MEP50 (Homo sapiens, UniProt O14744). Briefly: PRMT5 assay (3H-SAM flashplate scintillation). The assay is classed as biochemical. As to conditions: PRMT5-MEP50 2.5 nM, histone H4 peptide 100 nM, 3H-SAM 250 nM, 60 min. Summed up:
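Radiometric methyltransferase read-out: after 60 min reaction, excess unlabelled SAM (15 μM) stops turnover and biotinylated H4 peptide (100 nM) carrying 3H-methyl from 250 nM 3H-SAM is captured on streptavidin flashplates (2 h, 25° C) for scintillation counting. Enzyme, 2.5 nM PRMT5-MEP50, was preincubated 5 min with compound in pH 8.0 Tris buffer with DTT and Tween.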

The subject of the next assay is MOLM-13 cells. In words: MOLM-13 96 Hour cell proliferation assay (Cell Titer-Glo). Particulars: Homo sapiens. The assay is classed as cell-based. On the procedure: MOLM-13 96 Hour Cell Proliferation Assay
MOLM-13 (DSMZ) cells were seeded at 600 cells per well in a volume of 44 μL in a Greiner Bio-One CELLSTAR™ 384 Well Polystyrene Cell Culture clear bottom microplate in RPMI 1640 media containing 10% fetal bovine serum using a Multidrop Combi (ThermoFisher Scientific). Cells were incubated overnight at 37° C. in a humidified tissue culture incubator. To prevent evaporation or to reduce edge effect, add 50 μL or more H2O to an empty plate, cover, and place on top of the cell plates. The Mosquito® HTS Liquid Handler was used to make a compound/media intermediate plate by aliquoting 1 μL of compound from the initial compound dilution plate (concentrations ranging from 10.0 mM to 38.0 nM in 100% DMSO) into Bio-One 384-well polypropylene conical bottom microplate containing 49 μL of media containing the appropriate serum (50-fold dilution, 2% DMSO, compound concentrations ranging from 200.0 μM and […]). The Apricot liquid handling system was used to transfer 6.2 μL compounds from the intermediate plate into the seeding plate containing 44 μL cells (8-fold dilution spanning concentrations 25.0 μM to […], 0.25% DMSO final), and placed in a humidified tissue culture incubator at 37° C. After 96 hours, 25 μL of Cell Titer-Glo reagent (Promega) was added to each well using an Integra liquid handling system. The plate was protected from light using TopSeal-A (Black) film over the entire plate, added White Bottom seal film on the bottom of the entire plate for a better reading on the Envision, and placed on an IKA plate shaker for at 300 rpm for 10 minutes at room temperature. The plate was read on an EnVision plate reader (Perkin Elmer) using the Ultra Sensitive Luminescence protocol. Data analysis was performed by normalizing the raw luminescence units to an average of the positive control values for staurosporine (100% cell death) and the negative control values for DMSO (0% cell death). An IC50 was calculated using a 4-parameter logistic nonlinear regression model in GraphPad Prism.
On the technique in general: ATP-based viability assays read luminescence as a measure of living cells.

In another assay the target is METTL1/WDR4 (Homo sapiens, UniProt Q9UBP6). In words: METTL1 assay (3H-SAM flashplate scintillation). Type of assay: biochemical. Particulars: METTL1/WDR4 6.25 nM, RNA 25 nM, 3H-SAM 60 nM, 20 min; read-out: METTL1 IC50. In a few lines: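 Radiometric methyltransfer by METTL1/WDR4 (6.25 nM f.c., 5 min preincubation) at ambient temperature in HEPES pH 7.5, KCl, MgCl2, DTT; started with 25 nM 3′-biotinylated RNA and 60 nM 3H-SAM, run 20 min, quenched with 15 μM cold SAM. Product captured on streptavidin flashplates (2 h, 25° C), counted by scintillation.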
METTL1/WDR4, sequence (Q9UBP6 whole entry, species assumed): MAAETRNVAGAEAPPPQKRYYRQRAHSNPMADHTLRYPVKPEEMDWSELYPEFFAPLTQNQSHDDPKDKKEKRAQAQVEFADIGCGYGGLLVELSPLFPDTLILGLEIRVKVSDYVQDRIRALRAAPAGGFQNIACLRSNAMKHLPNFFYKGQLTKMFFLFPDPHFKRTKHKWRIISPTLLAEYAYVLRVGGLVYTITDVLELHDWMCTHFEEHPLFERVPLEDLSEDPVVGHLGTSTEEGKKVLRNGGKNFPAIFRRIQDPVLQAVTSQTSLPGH
METTL1/WDR4, sequence (P57081 whole entry partner, species assumed): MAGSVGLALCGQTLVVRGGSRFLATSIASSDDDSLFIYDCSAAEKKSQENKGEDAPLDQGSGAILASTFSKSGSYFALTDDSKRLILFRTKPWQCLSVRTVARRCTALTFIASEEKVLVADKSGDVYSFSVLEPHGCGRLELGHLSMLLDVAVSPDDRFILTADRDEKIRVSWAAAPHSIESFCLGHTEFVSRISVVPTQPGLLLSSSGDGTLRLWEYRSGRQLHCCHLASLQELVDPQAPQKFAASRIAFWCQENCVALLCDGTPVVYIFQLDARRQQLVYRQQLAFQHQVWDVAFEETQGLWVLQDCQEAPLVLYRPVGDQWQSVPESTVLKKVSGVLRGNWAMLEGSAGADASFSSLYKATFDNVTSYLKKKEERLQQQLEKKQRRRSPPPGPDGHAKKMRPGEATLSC

The target in another assay is T1, METTL16 (Homo sapiens, UniProt Q86W50).
T1 sequence (Q86W50 1-562): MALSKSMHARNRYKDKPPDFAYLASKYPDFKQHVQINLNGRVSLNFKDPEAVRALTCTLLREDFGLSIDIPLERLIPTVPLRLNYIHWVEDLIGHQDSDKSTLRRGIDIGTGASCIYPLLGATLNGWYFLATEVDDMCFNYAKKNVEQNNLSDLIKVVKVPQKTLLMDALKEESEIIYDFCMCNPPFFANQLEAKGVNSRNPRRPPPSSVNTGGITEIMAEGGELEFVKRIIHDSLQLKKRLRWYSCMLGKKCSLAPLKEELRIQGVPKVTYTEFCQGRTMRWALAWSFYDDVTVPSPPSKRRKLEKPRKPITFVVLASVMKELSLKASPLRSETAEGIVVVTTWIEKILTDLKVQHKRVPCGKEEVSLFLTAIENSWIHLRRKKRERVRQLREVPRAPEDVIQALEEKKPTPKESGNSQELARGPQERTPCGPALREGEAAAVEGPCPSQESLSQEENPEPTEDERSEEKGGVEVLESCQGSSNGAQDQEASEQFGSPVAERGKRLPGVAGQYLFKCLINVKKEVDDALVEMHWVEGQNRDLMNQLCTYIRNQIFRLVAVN
Briefly: METTL16 assay (3H-SAM flashplate scintillation). Type of assay: biochemical. Particulars: METTL16 100 nM, RNA 50 nM, 3H-SAM 200 nM, SAM 800 nM, 20 min. On the procedure:
Assays were performed in a 25 μl-volume in 384-well V-bottom polypropylene microplates (Greiner Bio-One, cat. No. 781280) at ambient temperature. Optimized 1× assay buffer was 20 mM HEPES pH 7.5, 50 mM KCl, 1 mM DTT, 0.01% Tween, 0.01% BSG, 0.004 U/μl RNAseOUT (cat. No. 10777019, ThermoFisher Scientific, Waltham, Mass.). For compound screening METTL16 (final concentration, f.c.=100 nM) was added using a Multidrop Combi (ThermoFisher Scientific, Waltham, Mass.) and preincubated for 5 min. Reactions were started by adding 3′ biotinylated RNA ([…]-biotin) (f.c.=50 nM), 3H-SAM (f.c.=200 nM) and non-radiolabeled SAM (f.c.=800 nM) substrates. Reactions proceeded for 20 minutes and were quenched with excess non-radioactive SAM (f.c.=100 μM). The reactions were then transferred to streptavidin-coated flashplates and incubated for 2 hours at 25° C. Following two washing cycles with 0.1% Tween-20, the plates were sealed and read on a TopCount (PerkinElmer, Waltham, Mass.) plate-based scintillation counter. For determination of kinetic parameters, reaction times were optimized so that measurements were taken during the initial velocity phase of the reaction.

METTL3/METTL14, sequence (Q86U44 whole entry, species assumed): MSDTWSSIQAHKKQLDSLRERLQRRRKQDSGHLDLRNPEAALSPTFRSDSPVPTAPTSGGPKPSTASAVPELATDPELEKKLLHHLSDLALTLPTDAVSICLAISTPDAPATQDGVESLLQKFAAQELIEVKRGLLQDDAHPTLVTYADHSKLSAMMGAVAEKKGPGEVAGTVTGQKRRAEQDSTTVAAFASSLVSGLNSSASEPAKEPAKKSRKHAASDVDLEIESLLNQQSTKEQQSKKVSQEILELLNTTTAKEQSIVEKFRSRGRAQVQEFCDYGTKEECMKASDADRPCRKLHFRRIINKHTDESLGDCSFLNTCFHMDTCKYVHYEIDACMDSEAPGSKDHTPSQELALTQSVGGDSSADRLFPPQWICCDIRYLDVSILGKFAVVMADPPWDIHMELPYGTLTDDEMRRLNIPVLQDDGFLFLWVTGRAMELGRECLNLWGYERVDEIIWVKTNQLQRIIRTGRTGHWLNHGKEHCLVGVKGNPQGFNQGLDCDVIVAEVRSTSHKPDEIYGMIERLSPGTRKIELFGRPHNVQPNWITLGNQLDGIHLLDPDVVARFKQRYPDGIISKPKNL
METTL3/METTL14, sequence (Q9HCE5 whole entry partner, species assumed): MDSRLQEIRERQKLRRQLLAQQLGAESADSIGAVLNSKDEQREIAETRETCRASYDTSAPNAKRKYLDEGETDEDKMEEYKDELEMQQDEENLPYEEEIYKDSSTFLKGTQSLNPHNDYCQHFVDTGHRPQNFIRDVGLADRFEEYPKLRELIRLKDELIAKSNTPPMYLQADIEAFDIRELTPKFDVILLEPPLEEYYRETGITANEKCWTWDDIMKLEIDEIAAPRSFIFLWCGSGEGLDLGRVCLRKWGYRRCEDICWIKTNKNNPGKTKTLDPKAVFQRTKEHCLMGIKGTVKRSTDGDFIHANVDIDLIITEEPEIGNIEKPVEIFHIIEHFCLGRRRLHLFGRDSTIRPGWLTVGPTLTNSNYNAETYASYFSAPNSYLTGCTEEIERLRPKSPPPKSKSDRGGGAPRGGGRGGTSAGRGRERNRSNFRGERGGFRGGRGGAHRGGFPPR
PRMT5-MEP50, sequence (O14744 whole entry): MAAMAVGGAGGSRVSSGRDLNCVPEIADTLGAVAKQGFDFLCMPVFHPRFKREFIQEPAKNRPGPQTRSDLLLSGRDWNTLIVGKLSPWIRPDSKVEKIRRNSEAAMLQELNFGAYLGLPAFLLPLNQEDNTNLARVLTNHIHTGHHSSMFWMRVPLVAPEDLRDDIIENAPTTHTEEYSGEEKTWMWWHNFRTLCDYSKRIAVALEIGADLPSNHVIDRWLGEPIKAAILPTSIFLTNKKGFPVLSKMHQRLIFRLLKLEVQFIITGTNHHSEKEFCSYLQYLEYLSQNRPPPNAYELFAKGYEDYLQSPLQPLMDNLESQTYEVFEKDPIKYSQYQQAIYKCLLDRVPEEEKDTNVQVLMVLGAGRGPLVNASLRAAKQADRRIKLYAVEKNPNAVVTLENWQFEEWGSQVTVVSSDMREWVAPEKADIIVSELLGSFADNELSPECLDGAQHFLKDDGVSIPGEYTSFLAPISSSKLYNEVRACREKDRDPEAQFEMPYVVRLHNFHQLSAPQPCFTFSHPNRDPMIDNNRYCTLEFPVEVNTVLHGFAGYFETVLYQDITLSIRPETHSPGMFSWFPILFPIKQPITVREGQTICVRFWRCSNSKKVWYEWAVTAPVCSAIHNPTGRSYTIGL
PRMT5-MEP50, sequence (Q9BQA1 whole entry partner): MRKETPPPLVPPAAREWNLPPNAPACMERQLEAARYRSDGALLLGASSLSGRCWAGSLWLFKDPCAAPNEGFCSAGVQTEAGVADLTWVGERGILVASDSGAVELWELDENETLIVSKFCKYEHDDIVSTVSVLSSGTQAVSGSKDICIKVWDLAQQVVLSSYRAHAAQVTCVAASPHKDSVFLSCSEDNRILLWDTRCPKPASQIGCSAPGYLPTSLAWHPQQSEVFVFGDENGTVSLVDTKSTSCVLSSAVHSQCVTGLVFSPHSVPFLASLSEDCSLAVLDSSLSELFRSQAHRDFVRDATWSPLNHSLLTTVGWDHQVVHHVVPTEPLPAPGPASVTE

By IC50 is commonly meant the midpoint of a concentration-inhibition curve. Regarding `CCc1cc(N2CCN(C)CC2)c2ccc(OCc3cncc(-n4ccc5c(N)ncnc54)c3)cc2n1` [Compound I-107], the IC50 against METTL3/METTL14 was less than 0.01 µM; on PRMT5-MEP50 it was greater than 1 µM; with MOLM-13 cells, less than 1 µM.
For `CCc1cc(N2CCOCC2)c2ncc(OCc3cncc(-n4cc(-c5ccn(C)n5)c5c(N)ncnc54)c3)cc2n1` [Compound I-150], the IC50 against METTL3/METTL14 was less than 0.01 µM; in the assay on MOLM-13 cells it was less than 1 µM.
On to `Cn1ccc(-c2cn(-c3cncc(COc4ccc5ccc(N6CC(N)C6)nc5c4)c3)c3ncnc(N)c23)n1` [Compound I-213], for which the IC50 was less than 0.01 µM on METTL3/METTL14, greater than 1 µM against PRMT5-MEP50 and less than 1 µM in the assay on MOLM-13 cells.
On to `COCc1cn(-c2cncc(COc3ccc4ccc(N5CCC5)nc4c3)c2)c2ncnc(N)c12` [Compound I-237], for which the IC50 against METTL3/METTL14 was less than 0.01 µM; with MOLM-13 cells, 1 to 10 µM.
In the same order, the values of `CCc1cc(NCCOC)c2ccc(OCc3cncc(-n4cc([C@@H]5CCCO5)c5c(N)ncnc54)c3)cc2n1` [Compound I-141] are less than 0.01 µM and less than 1 µM.
Turning to `CCNc1ccc2ccc(OCc3cncc(-n4cc([C@H]5CCCO5)c5c(N)ncnc54)c3)cc2n1` [Compound I-134], the half-maximal inhibitory concentration (IC50) is less than 0.01 µM against METTL3/METTL14 and less than 1 µM with MOLM-13 cells.
Turning to `CN(CCO)c1ccc2ccc(OCc3cncc(-n4cc(-c5ccn(C)n5)c5c(N)ncnc54)c3)cc2n1` [Compound I-169], the IC50 is less than 0.01 µM against METTL3/METTL14, greater than 1 µM at PRMT5-MEP50 and less than 1 µM in the assay with MOLM-13 cells.
In the case of `CCc1cc(N2CCOCC2)c2ccc(OCc3cncc(-n4cc([C@@H]5CCCO5)c5c(N)ncnc54)c3)cc2n1` [Compound I-143], the IC50 against METTL3/METTL14 was less than 0.01 µM; in the assay with MOLM-13 cells it was less than 1 µM.
In the same order, the values of `CCc1cc(NCCOC)c2ncc(OCc3cncc(-n4cc([C@@H]5CCCO5)c5c(N)ncnc54)c3)cc2n1` [Compound I-152] are less than 0.01 µM and less than 1 µM.
In the same order, the values of `CCc1cc(NCCOC)c2c(F)cc(CCc3cncc(-n4cc(-c5ccn(C)n5)c5c(N)ncnc54)c3)cc2n1` [Compound I-228] are less than 0.01 µM and less than 1 µM.
As for `CCc1cc(NC)c2ccc(OCc3cncc(-n4cc(-c5ccn(CCOC)n5)c5c(N)ncnc54)c3)cc2n1` [Compound I-154], the half-maximal inhibitory concentration (IC50) was less than 0.01 µM against METTL3/METTL14 and less than 1 µM in the assay with MOLM-13 cells.
As for `Nc1ncnc2c1c([C@H]1CCCO1)cn2-c1cncc(COc2ccc3ccc(N4CCC4)nc3c2)c1` [Compound I-144], the IC50 was less than 0.01 µM on METTL3/METTL14 and less than 1 µM in the assay with MOLM-13 cells.
Regarding `CCc1cc(N2CCNCC2)c2ccc(OCc3cncc(-n4cc([C@@H]5CCCO5)c5c(N)ncnc54)c3)cc2n1` [Compound I-149], the results for the IC50 on METTL3/METTL14 and with MOLM-13 cells were less than 0.01 µM and 1 to 10 µM, respectively.
For the compound `CCc1cc(NCCOC)c2ncc(CCc3cncc(-n4cc(-c5ccn(C)n5)c5c(N)ncnc54)c3)cc2n1` [Compound I-132], the results for the IC50 against METTL3/METTL14 and in the assay on MOLM-13 cells were less than 0.01 µM and less than 1 µM, respectively.
Take `CCc1cc(NCCOC)c2c(F)cc(OCc3cncc(-n4cc(-c5ccn(C)n5)c5c(N)ncnc54)c3)cc2n1` [Compound I-229]: the IC50 is less than 0.01 µM on METTL3/METTL14 and less than 1 µM in the assay with MOLM-13 cells.
As to `CCc1cc(N(C)C2CC2)c2ccc(OCc3cncc(-n4cc([C@@H]5CCCO5)c5c(N)ncnc54)c3)cc2n1` [Compound I-167], the IC50 at METTL3/METTL14 was less than 0.01 µM; with MOLM-13 cells it was less than 1 µM.
`CCc1cc(N2CCOCC2)c2ccc(OCc3cncc(-n4cc([C@H]5CCCO5)c5c(N)ncnc54)c3)cc2n1` [Compound I-142]: the IC50 at METTL3/METTL14 is 0.01 to 0.1 µM; with MOLM-13 cells it was less than 1 µM.
Regarding `CNc1ccc2ccc(OCc3nnc(-n4cc(Cl)c5c(N)ncnc54)s3)cc2n1` [Compound I-62], the IC50 is greater than 1 µM against METTL3/METTL14, 0.01 to 0.1 µM on PRMT5-MEP50, greater than 1 µM at METTL1/WDR4 and greater than 1 µM at METTL16.
For the compound `CCNc1ccc2ccc(OCc3cncc(-n4cc([C@@H]5CCCO5)c5c(N)ncnc54)c3)cc2n1` [Compound I-146], the values for the IC50 at METTL3/METTL14 and in the assay with MOLM-13 cells were less than 0.01 µM and less than 1 µM, respectively.
For `Nc1ccc2ccc(OCc3cccc(-n4cc(Cl)c5c(N)ncnc54)c3)cc2n1` [Compound I-77], the IC50 on METTL3/METTL14, at PRMT5-MEP50, on METTL1/WDR4 and against METTL16 was greater than 1 µM each time.
With `CNc1ccc2ccc(OCc3cccc(-n4cc(C5CC5)c5c(N)ncnc54)c3)cc2n1` [Compound I-73], the IC50 is 0.01 to 0.1 µM at METTL3/METTL14, greater than 1 µM against PRMT5-MEP50, greater than 1 µM on METTL1/WDR4 and greater than 1 µM against METTL16.
`CNc1ccc2ccc(OCc3cccc(-n4ccc5c(N)ncnc54)c3)cc2n1` [Compound I-78]: the IC50 is 0.01 to 0.1 µM on METTL3/METTL14, greater than 1 µM against PRMT5-MEP50, greater than 1 µM at METTL1/WDR4 and greater than 1 µM against METTL16.
In the case of `C[C@H]1CCN1c1ccc2ccc(OCc3cncc(-n4cc(C5CCCC5)c5c(N)ncnc54)c3)cc2n1` [Compound I-125], the IC50 is 0.01 to 0.1 µM against METTL3/METTL14, greater than 1 µM against PRMT5-MEP50, greater than 1 µM at METTL1/WDR4 and greater than 1 µM at METTL16.
For `CNc1ccc2ccc(OCc3cccc(-n4cc(Cl)c5c(N)ncnc54)n3)cc2n1` [Compound I-84], the IC50 was 0.01 to 0.1 µM on METTL3/METTL14, greater than 1 µM on PRMT5-MEP50, greater than 1 µM at METTL1/WDR4 and greater than 1 µM against METTL16.
In the case of `CCCc1cc(N)c2ccc(CCc3cncc(-n4cc(-c5ccn(C)n5)c5c(N)ncnc54)c3)cc2n1` [Compound I-131], the IC50 on METTL3/METTL14 is less than 0.01 µM; in the assay with MOLM-13 cells it was less than 1 µM.
Take `CCNc1ccc2ccc(CCc3cncc(-n4cc([C@H]5CCCO5)c5c(N)ncnc54)c3)cc2n1` [Compound I-156]: the values for the IC50 against METTL3/METTL14 and in the assay with MOLM-13 cells were less than 0.01 µM and 1 to 10 µM, respectively.

The values above are taken from patent US20220372040A1, “METTL3 MODULATORS” (Accent Therapeutics, Inc., priority 2020, published 2022).
